Laboratory results from patent publication US5104865A, “Iron complexes of hydroxypyridones useful for treating iron overload” (National Research Development Corporation, priority 1983, dated 1992).
Read-outs that look alike come from different tables or passages of the source. Blank lines part the entries; values can stand above or below the molecule they belong to.

Columns and labels:
[1] = Affinity for iron(III) expressed as log Ksol; assay type: physicochemical
From the text: In order to solubilise iron(III) hydroxide, log Ksol must be greater than 0 and in order to remove iron from transferrin, log Ksol should be in excess of 6.0. The log Ksol values for the single ring compounds 3-hydroxyl-1-methylpyrid-2-one and 1,2-dimethyl-3-hydroxypyrid-4-one, by way of example, are 10.0 and 9.5, respectively, thus comparing favourably with those of the bidentate hydroxamates at about 4.0, of catechols at about 8.0, of desferrioxamine at 6.0, and of diethylenetriamine penta-acetic acid (DTPA) at 2.0.

[2] = 100 uM, pH 7.4
Method: (§1) The partition coefficient Kpart, being the ratio (concentration of compound in n-octanol)/(concentraction of compound in aqueous phase) on partition between n-octanol and aqueous tris hydrochloride (20 mM, pH 7.4), is measured by spectrophotometry at 20° C. for various of the compounds of the previous Examples and for their iron(III) complexes (at 10^-4 M). […] Acid washed glassware is used throughout and, following mixing of 5 ml of the 10^-4 M aqueous solution with 5 ml n-octanol for 1 minute, the aqueous n-octanol mixture is centrifuged at 1,000 g for 30 seconds. The two resulting phases are separated for a concentration determination by spectrophotometry on each. For the metal-free linked hydroxypyridone compounds, the range 220-340 nm is used for concentration determinations whilst for the iron complexes, the range 340-640 nm is used.

[3] = Partition coefficient Kpart between n-octanol and aqueous tris hydrochloride; settings: n-octanol/tris hcl, pH 7.4
Method: as §1

Human transferrin = molecular target: T1, Human transferrin (Homo sapiens, UniProt P02787); assay: Mobilisation of iron from transferrin; assay type: biochemical; settings: for Percentage of iron removed from transferrin after 6 hours: compound 4×10^-3 M, 59Fe(III) transferrin 10^-5 M, tris HCl 0.1M pH 7.4, 6 hours
T1 construct: purchased Sigma
T1 sequence (P02787 20-698): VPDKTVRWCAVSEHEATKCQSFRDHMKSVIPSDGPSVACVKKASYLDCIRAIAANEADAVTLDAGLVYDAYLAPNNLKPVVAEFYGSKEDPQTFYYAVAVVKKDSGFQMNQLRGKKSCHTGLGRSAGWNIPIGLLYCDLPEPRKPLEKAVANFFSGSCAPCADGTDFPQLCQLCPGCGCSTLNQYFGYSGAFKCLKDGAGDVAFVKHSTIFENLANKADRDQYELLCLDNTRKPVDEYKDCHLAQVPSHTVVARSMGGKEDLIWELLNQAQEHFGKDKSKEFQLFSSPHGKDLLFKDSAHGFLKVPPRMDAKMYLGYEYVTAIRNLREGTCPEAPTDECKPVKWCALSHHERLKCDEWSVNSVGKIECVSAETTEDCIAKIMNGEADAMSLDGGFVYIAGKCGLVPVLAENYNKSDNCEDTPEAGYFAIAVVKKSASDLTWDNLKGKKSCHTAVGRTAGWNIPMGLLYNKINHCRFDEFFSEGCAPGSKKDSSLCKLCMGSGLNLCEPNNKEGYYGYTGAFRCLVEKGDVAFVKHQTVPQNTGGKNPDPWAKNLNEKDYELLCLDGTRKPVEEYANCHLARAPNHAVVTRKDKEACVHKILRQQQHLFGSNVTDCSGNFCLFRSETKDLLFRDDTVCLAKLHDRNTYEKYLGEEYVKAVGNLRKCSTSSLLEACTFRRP
Method: Human transferrin (Sigma) was loaded with iron(III) by the method of Bates and Schlaback, J. Biol. Chem. (1973) 248, 3228. ^59 Iron (III) transferrin (10^-5 M) was incubated with a 4×10^-3 M solution in tris HCl (0.1M, pH 7.4) of one of various pyridones as indicated in Table 4 for periods of 6 hours.

Horse spleen ferritin [4] = molecular target: T2, Horse spleen ferritin (Equus caballus, UniProt P02791); settings: similar test, cited from earlier work
T2 construct: purchased Sigma; host or cells: horse spleen
T2 sequence (P02791 2-175 limits assumed): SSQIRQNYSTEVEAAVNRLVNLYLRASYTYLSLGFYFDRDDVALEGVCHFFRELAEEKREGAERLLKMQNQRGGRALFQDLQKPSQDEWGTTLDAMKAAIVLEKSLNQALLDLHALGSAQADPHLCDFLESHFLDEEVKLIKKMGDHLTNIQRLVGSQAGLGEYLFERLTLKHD

Horse spleen ferritin [5] = molecular target: T2, Horse spleen ferritin; assay: Mobilisation of iron from ferritin; assay type: biochemical; settings: 25° C., pH 7.4
Method: Horse spleen ferritin (Sigma) was used without further purification and its iron content was estimated spectrophotometrically at 420 nm. The ferritin solution in phosphate buffered saline (Dulbecco-OXOID, 10^-6 M, pH 7.4) was incubated at 25° C. with the compound at 10^-4 M for 6 and 24 hours. Apoferritin (in admixture with ferritin) and the particular linked hydroxypyridone Fe^(III) complex were separated by chromatography on Sephadex G10. The absorption spectra of the high and low molecular weight fractions were recorded and the percentage of iron removed from the ferritin was calculated and is reported in Table 3. For comparative purposes, the procedure was repeated using a blank control, and also with the single ring, bidentate compound 1-ethyl-3-hydroxypyrid-4-one (at 10^-3 M). In addition, results reported in the literature for similar tests with 1×10^-3 M desferrioxamine (Crichton et al, J. Inorganic Biochem., 1980, 13, 305) and with 6×10^-3 M LICAMS (Tufano et al, Biochem. Biophys. Acta, 1981, 668, 420 ) are also given in the Table.

inverted rat jejunal sac = assay: Permeation of inverted rat jejunal sac by iron complexes; assay type: in vitro ADME; settings: relative to ferric chloride as 1; 59Fe complexes, 37° C., up to 1 hour
From the text: Rats (male Sprague Dawley, 60 g) were killed and the jejunum removed, everted and cut into three segments (4 cm length). […] The contents of the sac were counted for ^59 Fe and measured spectrophotometrically.

human erythrocytes = assay: Permeation of 59Fe labelled iron complexes into human erythrocytes; assay type: cell-based; settings: 59Fe complex 10^-3 M, 5% erythrocyte suspension, 1 hour, 37° C., pH 7.4; mean of at least three determinations
Method: The accumulation of iron by human erythrocytes which are associated with the iron complexes of three compounds described in earlier Examples was studied by incubating for 1 hour at 37° C. a 5% suspension of erythrocytes in a medium consisting of the ^59 Fe labelled iron complex^(1) (10^-3 M) in aqueous sodium chloride (130 mM) buffered to pH 7.4 by tris hydrochloride (2 ml). Following this period of incubation, an aliquot of the erythrocyte/medium mixture was placed above a layer of silicone oil and the erythrocytes separated by centrifugation through the oil. The ^59 Fe levels associated with the erythrocytes and the incubation medium were then counted. By way of comparison, a similar experiment was concluded with ferric citrate.

Molecule: Cn1cccc(O)c1=O [3-hydroxyl-1-methylpyrid-2-one]
log Ksol [1]: 10.0

Partition coefficient Kpart, iron complex [Fe^III -(compound)3 ] [2]: 0.3
logD at 100 µM [3]: -0.699
Molecule: O=C(Cn1cccc(O)c1=O)NCCCN(CCCNC(=O)Cn1cccc(O)c1=O)C(=O)Cn1cccc(O)c1=O [Compound 10, N-(3-hydroxy-2-oxopyrid-1-ylacetyl)-N-[3-(3-hydroxy-2-oxopyrid-1-ylacetamido)-propyl]-3-(3-hydroxy-2-oxopyrid-1-ylacetamido)-propylamine]

Molecule: O=C(O)CN(CCN(CC(=O)O)CC(=O)O)CC(=O)O [EDTA, ethylenediamine tetra-acetic acid, reference compound]
Percentage of iron removed from transferrin after 6 hours (Human transferrin): 27%

Molecule: O=C(O)CN(CCN(CC(=O)O)CC(=O)O)CCN(CC(=O)O)CC(=O)O [DTPA, diethylenetriamine penta-acetic acid]
log Ksol [1]: 2.0

Molecule: O=C(NCCCCN(CCCNC(=O)c1cc(S(=O)(=O)O)cc(O)c1O)C(=O)c1cc(S(=O)(=O)O)cc(O)c1O)c1cc(S(=O)(=O)O)cc(O)c1O [LICAMS]
Percentage of iron removed from ferritin, 6 hours (Horse spleen ferritin [4]; 6 × 10^-3 M, literature value (Tufano et al 1981)): 0%

Partition coefficient Kpart, iron complex [Fe^III -(compound)3 ] [2]: 0.10
Percentage of iron removed from transferrin after 6 hours (Human transferrin): 32%
logD at 100 µM [3]: -1.77
Molecule: O=C(Cn1cccc(O)c1=O)NCCCCCCCCNC(=O)Cn1cccc(O)c1=O [Compound 5]

Percentage of iron removed from ferritin, 6 hours (Horse spleen ferritin [5]; compound 10^-4 M): < 1%
Percentage of iron removed from ferritin, 24 hours (Horse spleen ferritin [5]; compound 10^-4 M): 3%
Molecule: O=C(Cn1cccc(O)c1=O)NCCCCCCNC(=O)Cn1cccc(O)c1=O [Compound 4, 1,6-di-(3-hydroxy-2-oxopyrid-1-ylacetamido)-hexane]

Percentage of iron removed from ferritin, 6 hours (Horse spleen ferritin [5]; compound 10^-4 M): 3%
Percentage of iron removed from ferritin, 24 hours (Horse spleen ferritin [5]; compound 10^-4 M): 10%
Partition coefficient Kpart, iron complex [Fe^III -(compound)3 ] [2]: 0.03
Percentage of iron removed from transferrin after 6 hours (Human transferrin): 40%
logD at 100 µM [3]: -1.7
Molecule: O=C(Cn1cccc(O)c1=O)NCCN(CCNC(=O)Cn1cccc(O)c1=O)CCNC(=O)Cn1cccc(O)c1=O [Compound 8]
Removal of iron from transferrin, comparison in words (Human transferrin; versus desferrioxamine and EDTA): markedly better results than desferrioxamine or EDTA

Percentage of iron removed from ferritin, 6 hours (Horse spleen ferritin [5]; compound 10^-3 M): 25%
Percentage of iron removed from ferritin, 24 hours (Horse spleen ferritin [5]; compound 10^-3 M): 44%
Molecule: CCn1ccc(=O)c(O)c1 [1-ethyl-3-hydroxypyrid-4-one, reference compound]

Molecule: [Cl][Fe]([Cl])[Cl] [FeCl3, ferric chloride]
Relative iron uptake into serosal space of jejunal sac (inverted rat jejunal sac): 1

Molecule: Cc1c(O)c(=O)ccn1C [1,2-dimethyl-3-hydroxypyrid-4-one]
log Ksol [1]: 9.5

Molecule: ferric citrate [Fe^III citrate]
Amount of complex entering erythrocytes (human erythrocytes): < 5 n.mole

Percentage of iron removed from transferrin after 6 hours (Human transferrin): 17%
Molecule: CC(=O)N(O)CCCCCNC(=O)CCC(=O)N(O)CCCCCNC(=O)CCC(=O)N(O)CCCCCN [Desferrioxamine, desferrioxamine]
log Ksol [1]: 6.0
Percentage of iron removed from ferritin, 6 hours (Horse spleen ferritin [4]; 10^-3 M, literature value (Crichton et al 1980)): 1.2%
